From ChEMBL document CHEMBL2040759, “Design, synthesis and anticancer activity of nitric oxide donating/chalcone hybrids” (2012)

Assays:
Assay type in all cases: functional
A549 = test: Growth inhibition of human A549/ATCC cells assessed as cell growth at 10^-5 M after 48 hrs by SRB assay; conditions: A549, 48 h, read-out: Activity
EKVX = test: Growth inhibition of human EKVX cells assessed as cell growth at 10^-5 M after 48 hrs by SRB assay; conditions: read-out: Activity
HOP-92 = test: Growth inhibition of human HOP92 cells assessed as cell growth at 10^-5 M after 48 hrs by SRB assay; conditions: HOP-92, 48 h, read-out: Activity
NCI-H23 = test: Growth inhibition of human NCI-H23 cells assessed as cell growth at 10^-5 M after 48 hrs by SRB assay; conditions: NCI-H23, 48 h, read-out: Activity
NCI-H460 = test: Growth inhibition of human NCI-H460 cells assessed as cell growth at 10^-5 M after 48 hrs by SRB assay; conditions: NCI-H460, 48 h, read-out: Activity
HCT-116 = test: Growth inhibition of human HCT116 cells assessed as cell growth at 10^-5 M after 48 hrs by SRB assay; conditions: HCT-116, 48 h, read-out: Activity
U-251 = test: Growth inhibition of human U251 cells assessed as cell growth at 10^-5 M after 48 hrs by SRB assay; conditions: U-251, 48 h, read-out: Activity
M14 = test: Growth inhibition of human M14 cells assessed as cell growth at 10^-5 M after 48 hrs by SRB assay; conditions: M14, 48 h, read-out: Activity
SK-MEL-28 = test: Growth inhibition of human SK-MEL-28 cells assessed as cell growth at 10^-5 M after 48 hrs by SRB assay; conditions: SK-MEL-28, 48 h, read-out: Activity
SK-MEL-5 = test: Growth inhibition of human SK-MEL-5 cells assessed as cell growth at 10^-5 M after 48 hrs by SRB assay; conditions: SK-MEL-5, 48 h, read-out: Activity
OVCAR-4 [1] = test: Growth inhibition of human OVCAR4 cells assessed as cell growth at 10^-5 M after 48 hrs by SRB assay; conditions: OVCAR-4, 48 h, read-out: Activity
OVCAR-8 = test: Growth inhibition of human OVCAR8 cells assessed as cell growth at 10^-5 M after 48 hrs by SRB assay; conditions: OVCAR-8, 48 h, read-out: Activity
CAKI-1 = test: Growth inhibition of human Caki1 cells assessed as cell growth at 10^-5 M after 48 hrs by SRB assay; conditions: CAKI-1, 48 h, read-out: Activity
SN12C [2] = test: Growth inhibition of human SN12C cells assessed as cell growth at 10^-5 M after 48 hrs by SRB assay; conditions: read-out: Activity
DU-145 = test: Growth inhibition of human DU145 cells assessed as cell growth at 10^-5 M after 48 hrs by SRB assay; conditions: DU-145, 48 h, read-out: Activity
MDA-MB-231 [3] = test: Growth inhibition of human MDA-MB-231 cells assessed as cell growth at 10^-5 M after 48 hrs by SRB assay; conditions: MDA-MB-231, 48 h, read-out: Activity
[4] = Growth inhibition of human Hs 578T cells assessed as cell growth at 10^-5 M after 48 hrs by SRB assay; conditions: read-out: Activity
BT-549 [5] = test: Growth inhibition of human BT549 cells assessed as cell growth at 10^-5 M after 48 hrs by SRB assay; conditions: BT-549, 48 h, read-out: Activity
T47D = test: Growth inhibition of human T47D cells assessed as cell growth at 10^-5 M after 48 hrs by SRB assay; conditions: read-out: Activity
HL-60(TB) = test: Growth inhibition of human HL-60(TB) cells after 48 hrs by SRB assay; conditions: HL-60, 48 h
HOP-62 = test: Growth inhibition of human HOP62 cells after 48 hrs by SRB assay; conditions: HOP-62, 48 h
COLO 205 = test: Growth inhibition of human COLO205 cells after 48 hrs by SRB assay; conditions: COLO 205, 48 h
HCC 2998 = test: Growth inhibition of human HCC2998 cells after 48 hrs by SRB assay; conditions: HCC 2998, 48 h
KM12 = test: Growth inhibition of human KM12 cells after 48 hrs by SRB assay; conditions: KM12, 48 h
SNB-75 = test: Growth inhibition of human SNB75 cells after 48 hrs by SRB assay; conditions: SNB-75, 48 h
UACC-62 = test: Growth inhibition of human UACC62 cells after 48 hrs by SRB assay; conditions: UACC-62, 48 h
IGROV-1 = test: Growth inhibition of human IGROV1 cells after 48 hrs by SRB assay; conditions: IGROV-1, 48 h
OVCAR-4 [6] = test: Growth inhibition of human OVCAR4 cells after 48 hrs by SRB assay; conditions: OVCAR-4, 48 h
SK-OV-3 = test: Growth inhibition of human SKOV3 cells after 48 hrs by SRB assay; conditions: SK-OV-3, 48 h
786-0 = test: Growth inhibition of human 786-0 cells after 48 hrs by SRB assay; conditions: 786-0, 48 h
A498 = test: Growth inhibition of human A498 cells after 48 hrs by SRB assay; conditions: A498, 48 h
SN12C [7] = test: Growth inhibition of human SN12C cells after 48 hrs by SRB assay
TK-10 = test: Growth inhibition of human TK10 cells after 48 hrs by SRB assay; conditions: TK-10, 48 h
MDA-MB-231 [8] = test: Growth inhibition of human MDA-MB-231 cells after 48 hrs by SRB assay; conditions: MDA-MB-231, 48 h
BT-549 [9] = test: Growth inhibition of human BT549 cells after 48 hrs by SRB assay; conditions: BT-549, 48 h
[10] = read-out: LC50 (the source's name)

`O=C(CO[N+](=O)[O-])Nc1ccc(C(=O)/C=C/c2ccc(Cl)cc2)cc1` gave a growth at 10 µM (A549) of 67.6%, a growth at 10 µM (EKVX) of 67.9% and a growth at 10 µM (HOP-92) of 66.8%. It also gave a growth at 10 µM (NCI-H23) of 5.49%, a growth at 10 µM (NCI-H460) of 84.9% and a growth at 10 µM (HCT-116) of -49.2%. It also gave a growth at 10 µM (U-251) of 14.9%, a growth at 10 µM (M14) of 3.46% and a growth at 10 µM (SK-MEL-28) of 86.8%. For the same compound, the growth at 10 µM (SK-MEL-5) was 54.5%, the growth at 10 µM (OVCAR-4 [1]) was 76.1% and the growth at 10 µM (OVCAR-8) was 27.2%. It also gave a growth at 10 µM (CAKI-1) of 74.9%, a growth at 10 µM (SN12C [2]) of 46.8% and a growth at 10 µM (DU-145) of 79.9%. It also gave a growth at 10 µM (MDA-MB-231 [3]) of 55%, a growth at 10 µM [4] of 89.7% and a growth at 10 µM (BT-549 [5]) of 18.9%. The growth at 10 µM (T47D) was 55.5%, the GI50 (HL-60(TB)) was 3.59 µM and the TGI (HL-60(TB)) was > 100 µM. For the same compound, the CC50 (HL-60(TB); [10]) was > 100 µM, the GI50 (HOP-62) was 3.11 µM and the TGI (HOP-62) was 9.73 µM. The CC50 (HOP-62; [10]) was 34.6 µM, the GI50 (COLO 205) was 2.57 µM and the TGI (COLO 205) was 6.09 µM. It also gave a CC50 (COLO 205; [10]) of 21.1 µM, a GI50 (HCC 2998) of 1.75 µM and a TGI (HCC 2998) of 3.64 µM. The CC50 (HCC 2998; [10]) was 7.57 µM, the GI50 (KM12) was 1.54 µM and the TGI (KM12) was 3.1 µM. The CC50 (KM12; [10]) was 6.23 µM, the GI50 (SNB-75) was 3.19 µM and the TGI (SNB-75) was 17.6 µM. It also gave a CC50 (SNB-75; [10]) of 47.6 µM, a GI50 (UACC-62) of 2.76 µM and a TGI (UACC-62) of 11 µM. It also gave a CC50 (UACC-62; [10]) of 51.3 µM, a GI50 (IGROV-1) of 13.4 µM and a TGI (IGROV-1) of 30 µM. It also gave a CC50 (IGROV-1; [10]) of 67.4 µM, a GI50 (OVCAR-4 [6]) of 4.06 µM and a TGI (OVCAR-4 [6]) of 21 µM. It also gave a CC50 (OVCAR-4 [6]; [10]) of 76.5 µM, a GI50 (SK-OV-3) of 10.1 µM and a TGI (SK-OV-3) of 65.9 µM. The CC50 (SK-OV-3; [10]) was > 100 µM, the GI50 (786-0) was 11.6 µM and the TGI (786-0) was 48 µM. For the same compound, the CC50 (786-0; [10]) was > 100 µM, the GI50 (A498) was 15.4 µM and the TGI (A498) was 54.9 µM. For the same compound, the CC50 (A498; [10]) was > 100 µM, the GI50 (SN12C [7]) was 3.15 µM and the TGI (SN12C [7]) was 14.1 µM. The CC50 (SN12C [7]; [10]) was 49.6 µM, the GI50 (TK-10) was 8.37 µM and the TGI (TK-10) was 25.1 µM. The CC50 (TK-10; [10]) was 68.2 µM, the GI50 (MDA-MB-231 [8]) was 5.39 µM and the TGI (MDA-MB-231 [8]) was 21.2 µM. For the same compound, the CC50 (MDA-MB-231 [8]; [10]) was 62 µM, the GI50 (BT-549 [9]) was 1.86 µM and the TGI (BT-549 [9]) was 5 µM. The CC50 (BT-549 [9]; [10]) was > 100 µM.
Compound `O=C(CO[N+](=O)[O-])Nc1ccc(C(=O)/C=C/c2ccc3c(c2)OCO3)cc1` has a growth at 10 µM (A549) of 88.9%, a growth at 10 µM (EKVX) of 99.7% and a growth at 10 µM (HOP-92) of 77.3%. For the same compound, the growth at 10 µM (NCI-H23) was 58.1%, the growth at 10 µM (NCI-H460) was 108% and the growth at 10 µM (HCT-116) was -5.9%. It also gave a growth at 10 µM (U-251) of 57.3%, a growth at 10 µM (M14) of 81.8% and a growth at 10 µM (SK-MEL-28) of 104%. For the same compound, the growth at 10 µM (SK-MEL-5) was 90.8%, the growth at 10 µM (OVCAR-4 [1]) was 96.1% and the growth at 10 µM (OVCAR-8) was 75.8%. The growth at 10 µM (CAKI-1) was 93%, the growth at 10 µM (SN12C [2]) was 95.4% and the growth at 10 µM (DU-145) was 96.7%. For the same compound, the growth at 10 µM (MDA-MB-231 [3]) was 87.4%, the growth at 10 µM [4] was 103% and the growth at 10 µM (BT-549 [5]) was 87.6%. For the same compound, the growth at 10 µM (T47D) was 83%.
